Test results as given in patent US20230201113A1, “IMMUNE BOOSTER - SUPPLEMENT TREATMENT KIT AND METHODS OF USE” (priority 2020, published 2023).

Test system: SARS-CoV-2
Type: in vivo
Conditions: of the 50 subjects in the control group

For “hydroxychloroquine [Placebo + hydroxychloroquine]”, the “subjects resolved from positive to negative through PCR testing after ten days” value was 9 subjects.
